In patent publication US11739098B2 (BRISTOL-MYERS SQUIBB COMPANY, priority 2017, dated 2023):

Columns and labels:
Format in all cases: cell-based
human TLR7 = target: T1, human TLR7 (Homo sapiens, UniProt Q9NYK1); assay: TLR7 inhibition reporter assay (HEK-Blue cells, SEAP reporter, gardiquimod stimulation); conditions: HEK-Blue cells overexpressing human TLR7, SEAP reporter, gardiquimod 7.5 μM
T1 construct: host or cells: HEK-Blue cells (HEK293-derived reporter line)
T1 sequence (Q9NYK1 27-1049): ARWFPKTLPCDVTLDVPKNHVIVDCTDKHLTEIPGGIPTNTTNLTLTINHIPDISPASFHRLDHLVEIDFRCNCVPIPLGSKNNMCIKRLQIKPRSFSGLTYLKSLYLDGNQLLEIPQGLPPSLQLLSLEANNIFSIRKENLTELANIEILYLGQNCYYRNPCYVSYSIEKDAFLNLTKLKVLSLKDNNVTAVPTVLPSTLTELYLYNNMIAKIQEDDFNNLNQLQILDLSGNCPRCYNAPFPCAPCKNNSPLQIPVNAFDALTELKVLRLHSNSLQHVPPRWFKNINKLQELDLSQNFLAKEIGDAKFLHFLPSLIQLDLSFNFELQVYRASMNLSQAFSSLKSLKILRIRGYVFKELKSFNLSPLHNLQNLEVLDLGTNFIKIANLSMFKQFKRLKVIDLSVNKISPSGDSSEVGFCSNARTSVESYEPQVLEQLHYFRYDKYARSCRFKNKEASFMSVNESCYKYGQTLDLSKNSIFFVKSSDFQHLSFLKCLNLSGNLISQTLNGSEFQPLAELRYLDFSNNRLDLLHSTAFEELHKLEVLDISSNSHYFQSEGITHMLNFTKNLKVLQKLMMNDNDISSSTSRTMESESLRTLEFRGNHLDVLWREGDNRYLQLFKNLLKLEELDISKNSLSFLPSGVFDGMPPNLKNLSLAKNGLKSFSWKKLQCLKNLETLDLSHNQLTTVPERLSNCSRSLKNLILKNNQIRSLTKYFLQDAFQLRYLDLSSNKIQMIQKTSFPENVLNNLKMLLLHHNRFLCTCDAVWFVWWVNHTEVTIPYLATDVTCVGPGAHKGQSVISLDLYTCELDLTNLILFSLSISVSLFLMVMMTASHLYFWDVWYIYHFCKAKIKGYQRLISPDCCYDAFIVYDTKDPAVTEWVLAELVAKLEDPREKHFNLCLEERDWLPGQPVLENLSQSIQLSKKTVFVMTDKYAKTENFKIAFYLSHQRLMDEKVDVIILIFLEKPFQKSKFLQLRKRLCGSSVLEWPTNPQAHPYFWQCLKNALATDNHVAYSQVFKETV
Procedure, shortened: (§1)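 HEK-Blue cells overexpressing human TLR7, TLR8 or TLR9 (NF-κB/AP-1-driven SEAP) pre-treated 30 min at room temperature with compound (0.05 nM–50 μM), then stimulated with gardiquimod 7.5 μM (TLR7), R848 15.9 μM (TLR8) or ODN2006 5 nM (TLR9). SEAP read colorimetrically after 22 h at 37 °C; % inhibition calculated.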

human TLR9 = target: T2, human TLR9 (Homo sapiens, UniProt Q9NR96); assay: TLR9 inhibition reporter assay (HEK-Blue cells, SEAP reporter, ODN2006 stimulation); conditions: HEK-Blue cells overexpressing human TLR9, SEAP reporter, ODN2006 5 nM
T2 construct: host or cells: HEK-Blue cells (HEK293-derived reporter line)
T2 sequence (Q9NR96 26-1032): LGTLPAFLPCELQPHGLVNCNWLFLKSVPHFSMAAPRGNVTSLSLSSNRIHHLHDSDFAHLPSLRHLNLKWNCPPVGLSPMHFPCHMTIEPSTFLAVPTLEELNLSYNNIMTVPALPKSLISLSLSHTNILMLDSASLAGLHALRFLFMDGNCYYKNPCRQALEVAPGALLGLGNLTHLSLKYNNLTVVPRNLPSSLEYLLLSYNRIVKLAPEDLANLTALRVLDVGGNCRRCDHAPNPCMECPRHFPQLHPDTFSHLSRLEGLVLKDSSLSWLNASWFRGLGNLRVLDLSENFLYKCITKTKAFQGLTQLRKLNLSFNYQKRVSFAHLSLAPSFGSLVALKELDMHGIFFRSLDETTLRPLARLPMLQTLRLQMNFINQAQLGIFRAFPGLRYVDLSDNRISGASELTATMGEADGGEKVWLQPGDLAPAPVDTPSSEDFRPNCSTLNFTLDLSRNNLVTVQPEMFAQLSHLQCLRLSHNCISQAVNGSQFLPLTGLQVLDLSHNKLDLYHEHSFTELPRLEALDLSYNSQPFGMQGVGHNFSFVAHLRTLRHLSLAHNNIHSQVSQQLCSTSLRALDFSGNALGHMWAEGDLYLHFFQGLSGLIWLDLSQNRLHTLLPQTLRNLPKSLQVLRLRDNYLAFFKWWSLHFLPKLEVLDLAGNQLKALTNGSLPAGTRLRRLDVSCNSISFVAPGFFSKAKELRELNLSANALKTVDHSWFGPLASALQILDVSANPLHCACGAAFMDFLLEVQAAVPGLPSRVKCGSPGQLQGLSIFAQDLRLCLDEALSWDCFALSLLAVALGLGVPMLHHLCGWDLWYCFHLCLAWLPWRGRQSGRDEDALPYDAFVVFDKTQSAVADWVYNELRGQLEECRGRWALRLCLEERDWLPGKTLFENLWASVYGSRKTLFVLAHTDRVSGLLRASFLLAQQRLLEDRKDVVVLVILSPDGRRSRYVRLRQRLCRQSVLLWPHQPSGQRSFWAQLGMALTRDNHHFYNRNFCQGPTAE
Procedure, shortened: as §1

human TLR8 = target: T3, human TLR8 (Homo sapiens, UniProt Q9NR97); assay: TLR8 inhibition reporter assay (HEK-Blue cells, SEAP reporter, R848 stimulation); conditions: HEK-Blue cells overexpressing human TLR8, SEAP reporter, R848 15.9 μM
T3 construct: host or cells: HEK-Blue cells (HEK293-derived reporter line)
T3 sequence (Q9NR97 27-1041): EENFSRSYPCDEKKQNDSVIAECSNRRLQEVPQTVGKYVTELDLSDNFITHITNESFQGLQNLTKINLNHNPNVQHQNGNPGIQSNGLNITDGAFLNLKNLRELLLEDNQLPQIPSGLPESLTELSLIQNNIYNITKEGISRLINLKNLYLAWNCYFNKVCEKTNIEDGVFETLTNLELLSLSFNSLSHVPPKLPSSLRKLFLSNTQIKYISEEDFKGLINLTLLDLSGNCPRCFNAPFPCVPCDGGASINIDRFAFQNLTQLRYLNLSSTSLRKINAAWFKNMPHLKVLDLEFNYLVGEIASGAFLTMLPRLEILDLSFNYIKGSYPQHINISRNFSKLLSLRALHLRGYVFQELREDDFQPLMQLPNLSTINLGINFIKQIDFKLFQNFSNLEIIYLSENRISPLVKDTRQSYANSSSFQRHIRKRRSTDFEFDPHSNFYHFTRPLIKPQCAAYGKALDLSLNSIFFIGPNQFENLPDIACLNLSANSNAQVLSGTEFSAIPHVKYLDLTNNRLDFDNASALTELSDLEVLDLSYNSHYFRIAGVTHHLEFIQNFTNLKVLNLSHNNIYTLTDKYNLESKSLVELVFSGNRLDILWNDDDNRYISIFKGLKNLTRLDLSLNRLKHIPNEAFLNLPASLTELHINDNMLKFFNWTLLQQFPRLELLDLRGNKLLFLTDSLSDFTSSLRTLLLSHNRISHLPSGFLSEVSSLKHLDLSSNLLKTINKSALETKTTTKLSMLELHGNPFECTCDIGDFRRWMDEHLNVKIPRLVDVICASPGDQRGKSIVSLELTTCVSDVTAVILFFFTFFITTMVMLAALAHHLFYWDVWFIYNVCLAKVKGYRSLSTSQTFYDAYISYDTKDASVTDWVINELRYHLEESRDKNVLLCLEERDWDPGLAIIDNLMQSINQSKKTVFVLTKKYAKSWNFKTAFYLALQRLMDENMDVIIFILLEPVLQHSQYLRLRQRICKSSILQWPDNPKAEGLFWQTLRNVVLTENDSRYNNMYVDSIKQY
Procedure, shortened: as §1

IC50 (human TLR7)	IC50 (human TLR9)	IC50 (human TLR8)	SMILES
< 0.1 µM	1 to 50 µM	< 0.1 µM	Cc1cc(-c2[nH]c3ccc(C4CCN(C(=O)CN(C)C(C)(C)C)CC4)cc3c2C(C)C)cn2nnnc12 [Example 481, 2-(tert-butyl(methyl)amino)-1-(4-(3-isopropyl-2-(8-methyltetrazolo[1,5-a]pyridin-6-yl)-1H-indol-5-yl)piperidin-1-yl)ethan-1-one]
< 0.1 µM	1 to 50 µM	0.1 to 1 µM	Cc1nc2ccc(-c3[nH]c4ccc(C5CCNCC5)cc4c3C(C)C)cc2o1 [Example 6, 6-(3-isopropyl-5-(piperidin-4-yl)-1H-indol-2-yl)-2-methylbenzo[d]oxazole]
0.1 to 1 µM	0.1 to 1 µM	< 0.1 µM	CC(C)c1c(-c2ccc3c(c2)oc(=O)n3C)[nH]c2ccc(C3CCNCC3)cc12 [Example 89, 6-(3-isopropyl-5-(piperidin-4-yl)-1H-indol-2-yl)-3-methylbenzo[d]oxazol-2(3H)-one]
< 0.1 µM	0.1 to 1 µM	< 0.1 µM	CC(C)c1c(-c2ccnc3[nH]cnc23)[nH]c2ccc(C3CCNCC3)cc12 [Example 61, 7-(3-isopropyl-5-(piperidin-4-yl)-1H-indol-2-yl)-3H-imidazo[4,5-b]pyridine]
0.1 to 1 µM	1 to 50 µM	< 0.1 µM	CCc1c(-c2cnc3[nH]ncc3c2)[nH]c2ccc(C3CCNCC3)cc12 [Example 53, 5-(3-ethyl-5-(piperidin-4-yl)-1H-indol-2-yl)-1H-pyrazolo[3,4-b]pyridine]
0.1 to 1 µM	> 50 µM	0.1 to 1 µM	CNC(=O)CN1CCC(c2ccc3[nH]c(-c4ccc5ncc(C#N)n5c4)c(C(C)C)c3c2)CC1 [Example 390, 2-(4-(2-(3-cyanoimidazo[1,2-a]pyridin-6-yl)-3-isopropyl-1H-indol-5-yl)piperidin-1-yl)-N-methylacetamide]
< 0.1 µM	1 to 50 µM	< 0.1 µM	CCN(C)CC(=O)N1CCC(c2ccc3[nH]c(-c4cc(C)c5nnnn5c4)c(C(C)C)c3c2)CC1 [Example 475, 2-(ethyl(methyl)amino)-1-(4-(3-isopropyl-2-(8-methyltetrazolo[1,5-a]pyridin-6-yl)-1H-indol-5-yl)piperidin-1-yl)ethan-1-one]
< 0.1 µM	1 to 50 µM	< 0.1 µM	Cc1cc(-c2[nH]c3ccc(C4CCN(C(=O)CCN5C[C@H]6CC[C@@H](C5)O6)CC4)cc3c2C(C)C)cn2nnnc12 [Example 622, 3-((1R,5S)-8-oxa-3-azabicyclo[3.2.1]octan-3-yl)-1-(4-(3-isopropyl-2-(8-methyltetrazolo[1,5-a]pyridin-6-yl)-1H-indol-5-yl)piperidin-1-yl)propan-1-one]
0.1 to 1 µM	0.1 to 1 µM	0.1 to 1 µM	CCc1c(-c2ccc3oc(=O)[nH]c3c2)[nH]c2ccc(C3CCNCC3)cc12 [Example 168, 5-(3-ethyl-5-(piperidin-4-yl)-1H-indol-2-yl)benzo[d]oxazol-2(3H)-one]
< 0.1 µM	0.1 to 1 µM	< 0.1 µM	Cc1nc(CN2CCC(c3ccc4[nH]c(-c5ccnc6[nH]ncc56)c(C(C)C)c4c3)CC2)c2ccccn12 [Example 868, 4-(3-isopropyl-5-(1-((3-methylimidazo[1,5-a]pyridin-1-yl)methyl)piperidin-4-yl)-1H-indol-2-yl)-1H-pyrazolo[3,4-b]pyridine]
< 0.1 µM	0.1 to 1 µM	< 0.1 µM	Cc1cc(-c2[nH]c3ccc(C4CCNCC4)cc3c2C(C)C)cc2cncn12 [Example 164, 7-(3-isopropyl-5-(piperidin-4-yl)-1H-indol-2-yl)-5-methylimidazo[1,5-a]pyridine]
< 0.1 µM	0.1 to 1 µM	< 0.1 µM	Cc1cc2[nH]c(-c3ccnc4[nH]ncc34)c(C(C)C)c2cc1C1CCN(C2CCN(C(C)C)CC2)CC1 [Example 826, 4-(3-isopropyl-5-(1′-isopropyl-[1,4′-bipiperidin]-4-yl)-6-methyl-1H-indol-2-yl)-1H-pyrazolo[3,4-b]pyridine]
< 0.1 µM	< 0.1 µM	0.1 to 1 µM	Cc1cn2cc(-c3[nH]c4ccc(C5CCN(Cc6c[nH]cn6)CC5)cc4c3C(C)C)ccc2n1 [Example 936, 6-(5-(1-((1H-imidazol-4-yl)methyl)piperidin-4-yl)-3-isopropyl-1H-indol-2-yl)-2-methylimidazo[1,2-a]pyridine]
< 0.1 µM	0.1 to 1 µM	< 0.1 µM	CC(C)c1c(-c2ccnc3[nH]ncc23)[nH]c2ccc(C3CCN(C4CCNCC4O)CC3)cc12 (stereo not drawn) [Example 804, 4-(3-isopropyl-2-(1H-pyrazolo[3,4-b]pyridin-4-yl)-1H-indol-5-yl)-[1,4′-bipiperidin]-3′-ol]
< 0.1 µM	1 to 50 µM	< 0.1 µM	COc1c(C)c(-c2[nH]c3ccc(C4CCN(CC(=O)N(C)C)CC4)cc3c2C(C)C)nn2ncnc12 [Example 282, 2-(4-(3-isopropyl-2-(8-methoxy-7-methyl-[1,2,4]triazolo[1,5-b]pyridazin-6-yl)-1H-indol-5-yl)piperidin-1-yl)-N,N-dimethylacetamide]
